Calls of active or inactive are those of the source. For most assays here, no stated cut-off is given here; in the data, active = IC50 of 10 µM or less and inactive = more.
What was measured:
Format in all cases: functional
[1] = molecular target: T1, DNA dC->dU-editing enzyme APOBEC-3A (Homo sapiens, UniProt P31941); experiment: SAR analysis of small molecule inhibitors of APOBEC3A DNA Deaminase via a fluorescence-based single-stranded DNA deaminase assay - Set 2.; conditions: read-out: IC50_Mean
T1 sequence (P31941 whole entry): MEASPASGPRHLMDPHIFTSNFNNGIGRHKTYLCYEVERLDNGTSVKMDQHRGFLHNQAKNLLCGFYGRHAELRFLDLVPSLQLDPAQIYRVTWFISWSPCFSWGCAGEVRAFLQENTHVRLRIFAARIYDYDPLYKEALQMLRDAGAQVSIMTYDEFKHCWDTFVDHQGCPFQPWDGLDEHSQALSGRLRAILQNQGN

[2] = molecular target: T2, DNA dC->dU-editing enzyme APOBEC-3G (Homo sapiens, UniProt Q9HC16); experiment: SAR analysis of small molecule inhibitors of APOBEC3G DNA Deaminase via a fluorescence-based single-stranded DNA deaminase assay - Set 2.; conditions: read-out: IC50_Mean
T2 sequence (Q9HC16 whole entry): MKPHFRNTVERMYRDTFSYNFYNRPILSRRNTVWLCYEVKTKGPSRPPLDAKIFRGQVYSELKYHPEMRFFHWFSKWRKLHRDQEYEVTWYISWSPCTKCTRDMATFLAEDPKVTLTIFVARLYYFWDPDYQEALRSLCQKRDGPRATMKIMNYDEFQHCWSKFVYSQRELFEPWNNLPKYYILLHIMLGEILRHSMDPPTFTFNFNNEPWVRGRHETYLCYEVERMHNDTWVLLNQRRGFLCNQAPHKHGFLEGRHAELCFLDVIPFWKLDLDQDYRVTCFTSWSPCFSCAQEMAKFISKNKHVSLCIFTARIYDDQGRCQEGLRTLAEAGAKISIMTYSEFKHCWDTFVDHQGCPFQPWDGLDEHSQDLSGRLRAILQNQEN

[3] = molecular target: T2, DNA dC->dU-editing enzyme APOBEC-3G; experiment: inhibition of APOBEC3G ssDNA deamination – biochemical, fluorescence, single-stranded DNA substrate, SAR follow-up (AID 602136); conditions: read-out: IC50_Mean
[4] = molecular target: T1, DNA dC->dU-editing enzyme APOBEC-3A; experiment: SAR analysis of small molecule inhibitors of APOBEC3A DNA Deaminase via a fluorescence-based single-stranded DNA deaminase assay.; conditions: read-out: IC50_Mean
[5] = molecular target: Neuropeptides B/W receptor type 1 (Homo sapiens, UniProt P48145); experiment: human NPBW1 receptor blockade, IC50 – cell-based, fluorescence, dose response, set 6, late-stage follow-up (AID 588583)
Sequence of Neuropeptides B/W receptor type 1 (P48145 whole entry): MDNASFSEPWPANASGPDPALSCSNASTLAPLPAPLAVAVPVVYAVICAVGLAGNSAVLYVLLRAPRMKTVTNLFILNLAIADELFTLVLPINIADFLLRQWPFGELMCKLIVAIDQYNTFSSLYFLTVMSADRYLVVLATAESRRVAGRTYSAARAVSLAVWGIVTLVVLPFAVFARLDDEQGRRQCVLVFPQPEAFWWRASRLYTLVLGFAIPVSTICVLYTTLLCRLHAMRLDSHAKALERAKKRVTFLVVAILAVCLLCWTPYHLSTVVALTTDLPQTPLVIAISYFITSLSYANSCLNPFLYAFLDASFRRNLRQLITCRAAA

[6] = molecular target: Melanin-concentrating hormone receptor 1 (Homo sapiens, UniProt Q99705); experiment: Late-stage fluorescence-based counterscreen for antagonists of the G-protein coupled receptor 7 (GPR7): cell-based dose response assay to identify antagonists of the melanin-concentrating hormone receptor 1 (MCHR1) Set 6.
Sequence of Melanin-concentrating hormone receptor 1 (Q99705 whole entry): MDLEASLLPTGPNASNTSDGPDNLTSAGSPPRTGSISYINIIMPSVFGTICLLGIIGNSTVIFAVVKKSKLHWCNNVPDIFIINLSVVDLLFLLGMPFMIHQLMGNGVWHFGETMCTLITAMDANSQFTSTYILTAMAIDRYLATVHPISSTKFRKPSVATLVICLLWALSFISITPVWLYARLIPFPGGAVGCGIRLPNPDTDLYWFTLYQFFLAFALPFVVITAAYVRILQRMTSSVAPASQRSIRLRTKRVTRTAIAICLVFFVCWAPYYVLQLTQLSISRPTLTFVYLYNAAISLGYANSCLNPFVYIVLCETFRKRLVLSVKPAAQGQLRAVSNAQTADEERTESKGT

IC50 [5] | IC50 [6] | Compound | IC50 [1] | IC50 [2] | IC50 [3] | IC50 [4]
– | – | O=C(NCc1ccc2c(c1)OCO2)c1nn2cccnc2c1Cl | > 99 µM (inactive) | 49.9 µM (inactive) | > 99 µM (inactive) | > 99 µM (inactive)
0.937 µM (active) | 0.937 µM (active) | N#CC(c1ccccc1F)c1c(Cl)cnn(Cc2cccc3ccccc23)c1=O (stereo unspecified) | – | – | – | –

Reference: ChEMBL document CHEMBL1201862, “PubChem BioAssay data set” (2004)
